Legend:
mTOR (FRAP1) = mTOR (FRAP1) (Homo sapiens, UniProt P42345); assay: SelectScreen Profiling, Z'-LYTE kinase assay, mTOR (FRAP1); assay type: biochemical; conditions: 0.1 μM compound, ATP at Km, read-out: mTOR inh% @0.1 μM
Excerpt: (§1) Some of the example compounds were submitted to Life Technologies Corporation SelectScreen® Profiling Service to test their potency in inhibiting the kinase catalytic activities of mTOR, PI3Kα, VEGF2, FGFR1, HER1 (EGFR) and HER2. A concentration of ATP at the Km of the corresponding kinase was used for all assays. The mTOR (FRAP1), VEGF2, FGFR1, HER1 (EGFR) and HER2 assays used Z′-LYTE® technology. The PI3Kα assay used Adapta® technology. The symbol “inh %” as used herein generally refers to inhibition percentage.

[1] = test system: mammalian tumor cell lines such as PC-3, LNCAP, U87, Huh-7, HepG2 and MDA-MB-468; assay: Cell proliferation/survival MTT assay in tumor cell lines; assay type: cell-based; conditions: 5 days (120 h) culture; cell line not specified; read-out: IC50, inhibition of tumor cell growth (MTT)
Procedure: The cytotoxic or cytostatic activity of Formula I-III exemplary compounds was measured by establishing proliferating mammalian tumor cell lines such as PC-3, LNCAP, U87, Huh-7, HepG2 and MDA-MB-468 in a cell culture medium, adding a test compound, culturing the cells for a period of 5 days by measuring cell viability via MTT assays. Dose response data were obtained for each test compound and the degree of inhibition of tumor cell growth was expressed as an IC50 value. […] For example. For example, compounds of example 14, 15, 46,29, 45, 49, 122, 88, 54, 55, 58, 59, 63, 64, 66, 67, 68, 113, 86, 90.
PC-3 (or U87) cells were seeded in 96-well plates at low density (at 2,000 cells per well) in media supplemented with 10% FBS (growth media) and transferred to serum-free media (1% FBS) after 24 h. Designated concentrations of drug were added to each well. The cells were incubated for 120 h. At the end of drug exposure, 20 μL/well of MTT solution was added. After 4 h at 37° C. in a humidified 5% CO2 atmosphere, the absorbance at 490 nm was recorded by using a microplate reader. IC50 was calculated using GraphPad Prism version 5 for Windows. The curves were fit using a nonlinear regression model with a log (inhibitor) versus response formula.

PI3Kα = PI3Kα (Homo sapiens, UniProt P42336); assay: SelectScreen Profiling, Adapta kinase assay, PI3Kα; assay type: biochemical; conditions: 0.1 μM compound, ATP at Km, read-out: PI3Kα inh % @0.1 μM
VEGF2 = VEGF2 (Homo sapiens, UniProt P35968); assay: SelectScreen Profiling, Z'-LYTE kinase assay, VEGF2; assay type: biochemical; conditions: 1 μM compound, ATP at Km, read-out: VEGF 2 inh % @1 μM
Excerpt: as §1

FGFR1 = FGFR1 (Homo sapiens, UniProt P11362); assay: SelectScreen Profiling, Z'-LYTE kinase assay, FGFR1; assay type: biochemical; conditions: 1 μM compound, ATP at Km, read-out: FGFR 1 inh % @1 μM
Excerpt: as §1

HER1 (EGFR) = HER1 (EGFR) (Homo sapiens, UniProt P00533); assay: SelectScreen Profiling, Z'-LYTE kinase assay, HER1 (EGFR); assay type: biochemical; conditions: 1 μM compound, ATP at Km, read-out: HER1 inh % @1 μM
Excerpt: as §1

HER2 = HER2 (Homo sapiens, UniProt P04626); assay: SelectScreen Profiling, Z'-LYTE kinase assay, HER2; assay type: biochemical; conditions: 1 μM compound, ATP at Km, read-out: HER2 inh % @1 μM
Excerpt: as §1

[2] = Metabolic stability in human liver microsome (HLM); assay type: in vitro ADME; conditions: incubation with human liver microsome for 60 min
Procedure: (§2) Active mTOR inhibitors in enzymatic and/or cell-based assays herein were evaluated for pharmacokinetic properties. Preferable compounds are with pharmacokinetic properties of low clearance, long half-life and/or good oral bioavailability (Fpo). In vitro, selected example compounds were evaluated for metabolic stability by incubating with human liver microsome (HLM) for 60 min. Compounds that were metabolized slower (i.e. higher % remaining) are preferred. […] The more metabolic stable example compounds in the HLM assay were further evaluated for pharmacokinetic properties in vivo. In a representative experiment, selected example compounds were dosed to rats intravenously (IV, 5 mg/kg, 30% PEG400+30% PG+1% DMSO in saline) and orally (PO, 10 mg/kg, 2.4% DMSO+0.1% Tween80 in 0.5% CMC-Na), rat blood samples were taken at designed time points after dosing and analyzed for tested drug concentrations using LC-MS/MS. Pharmacokinetic parameters were derived from the time curve of drug concentrations.

[3] = Rat pharmacokinetic study (IV and PO); assay type: in vivo
Procedure: as §2

Chain of HER2 (P04626 23-1255): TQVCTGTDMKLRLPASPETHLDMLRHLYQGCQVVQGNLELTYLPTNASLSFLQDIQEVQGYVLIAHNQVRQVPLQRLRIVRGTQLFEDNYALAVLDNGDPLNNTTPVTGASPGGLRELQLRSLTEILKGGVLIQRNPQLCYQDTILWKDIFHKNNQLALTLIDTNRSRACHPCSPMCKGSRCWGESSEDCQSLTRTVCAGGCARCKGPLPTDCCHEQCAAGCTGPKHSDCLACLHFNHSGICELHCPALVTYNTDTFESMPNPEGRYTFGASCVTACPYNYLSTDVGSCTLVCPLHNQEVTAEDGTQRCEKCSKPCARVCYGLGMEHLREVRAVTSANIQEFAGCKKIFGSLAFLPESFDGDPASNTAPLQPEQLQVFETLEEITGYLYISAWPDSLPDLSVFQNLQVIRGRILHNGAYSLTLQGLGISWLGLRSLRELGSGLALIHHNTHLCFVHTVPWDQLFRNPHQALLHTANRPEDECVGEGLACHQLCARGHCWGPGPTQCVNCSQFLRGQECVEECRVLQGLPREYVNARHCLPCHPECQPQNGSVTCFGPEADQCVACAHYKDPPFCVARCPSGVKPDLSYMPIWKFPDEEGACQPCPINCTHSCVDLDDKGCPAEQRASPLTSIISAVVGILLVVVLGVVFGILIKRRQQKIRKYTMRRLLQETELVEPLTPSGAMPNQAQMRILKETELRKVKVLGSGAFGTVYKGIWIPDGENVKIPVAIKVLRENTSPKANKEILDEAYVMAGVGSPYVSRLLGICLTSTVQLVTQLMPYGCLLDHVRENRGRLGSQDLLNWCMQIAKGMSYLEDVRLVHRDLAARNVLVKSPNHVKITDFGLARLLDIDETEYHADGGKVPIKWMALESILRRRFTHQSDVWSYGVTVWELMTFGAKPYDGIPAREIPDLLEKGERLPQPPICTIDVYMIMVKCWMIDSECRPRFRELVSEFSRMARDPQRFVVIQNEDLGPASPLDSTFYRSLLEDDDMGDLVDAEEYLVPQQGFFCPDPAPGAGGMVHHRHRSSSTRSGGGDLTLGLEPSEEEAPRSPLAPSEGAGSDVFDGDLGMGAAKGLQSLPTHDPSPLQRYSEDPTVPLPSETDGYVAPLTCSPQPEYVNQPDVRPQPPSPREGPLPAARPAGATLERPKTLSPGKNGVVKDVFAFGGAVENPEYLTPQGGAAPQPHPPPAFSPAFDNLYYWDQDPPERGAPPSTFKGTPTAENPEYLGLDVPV
Chain of VEGF2 (P35968 20-1356): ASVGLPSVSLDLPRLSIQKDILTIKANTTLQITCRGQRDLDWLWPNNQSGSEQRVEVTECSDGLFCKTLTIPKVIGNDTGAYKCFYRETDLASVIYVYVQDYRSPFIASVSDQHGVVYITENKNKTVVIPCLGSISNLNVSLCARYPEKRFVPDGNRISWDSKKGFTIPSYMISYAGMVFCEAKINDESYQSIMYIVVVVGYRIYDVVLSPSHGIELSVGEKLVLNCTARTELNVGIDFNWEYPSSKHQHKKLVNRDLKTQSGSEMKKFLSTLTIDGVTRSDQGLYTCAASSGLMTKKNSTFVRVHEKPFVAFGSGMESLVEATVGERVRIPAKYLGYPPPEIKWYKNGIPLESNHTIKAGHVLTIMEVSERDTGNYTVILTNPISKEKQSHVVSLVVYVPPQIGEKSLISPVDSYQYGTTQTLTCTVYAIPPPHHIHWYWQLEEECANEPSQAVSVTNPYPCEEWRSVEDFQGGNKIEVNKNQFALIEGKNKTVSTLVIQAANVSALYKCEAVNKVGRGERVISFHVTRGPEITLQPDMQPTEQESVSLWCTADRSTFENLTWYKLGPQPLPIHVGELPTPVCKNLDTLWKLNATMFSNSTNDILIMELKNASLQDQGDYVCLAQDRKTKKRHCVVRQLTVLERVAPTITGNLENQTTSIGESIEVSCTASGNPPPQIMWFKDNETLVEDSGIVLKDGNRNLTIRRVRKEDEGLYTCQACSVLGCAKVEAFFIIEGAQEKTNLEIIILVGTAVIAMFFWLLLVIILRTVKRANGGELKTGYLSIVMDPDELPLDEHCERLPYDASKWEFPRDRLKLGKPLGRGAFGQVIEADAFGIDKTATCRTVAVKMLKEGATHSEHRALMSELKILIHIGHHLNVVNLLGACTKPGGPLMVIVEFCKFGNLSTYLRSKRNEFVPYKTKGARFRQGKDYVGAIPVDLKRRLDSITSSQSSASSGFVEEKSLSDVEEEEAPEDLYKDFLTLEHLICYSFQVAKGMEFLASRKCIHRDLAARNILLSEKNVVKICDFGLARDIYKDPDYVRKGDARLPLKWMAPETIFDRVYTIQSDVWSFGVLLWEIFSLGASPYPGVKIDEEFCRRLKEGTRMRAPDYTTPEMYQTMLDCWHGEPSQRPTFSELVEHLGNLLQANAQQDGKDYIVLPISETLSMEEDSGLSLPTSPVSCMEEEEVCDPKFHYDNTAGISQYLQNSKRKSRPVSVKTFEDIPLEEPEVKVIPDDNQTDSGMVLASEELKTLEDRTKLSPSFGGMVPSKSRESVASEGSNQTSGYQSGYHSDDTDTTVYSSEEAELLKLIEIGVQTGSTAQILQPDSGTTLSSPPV
Chain of PI3Kα (P42336 whole entry): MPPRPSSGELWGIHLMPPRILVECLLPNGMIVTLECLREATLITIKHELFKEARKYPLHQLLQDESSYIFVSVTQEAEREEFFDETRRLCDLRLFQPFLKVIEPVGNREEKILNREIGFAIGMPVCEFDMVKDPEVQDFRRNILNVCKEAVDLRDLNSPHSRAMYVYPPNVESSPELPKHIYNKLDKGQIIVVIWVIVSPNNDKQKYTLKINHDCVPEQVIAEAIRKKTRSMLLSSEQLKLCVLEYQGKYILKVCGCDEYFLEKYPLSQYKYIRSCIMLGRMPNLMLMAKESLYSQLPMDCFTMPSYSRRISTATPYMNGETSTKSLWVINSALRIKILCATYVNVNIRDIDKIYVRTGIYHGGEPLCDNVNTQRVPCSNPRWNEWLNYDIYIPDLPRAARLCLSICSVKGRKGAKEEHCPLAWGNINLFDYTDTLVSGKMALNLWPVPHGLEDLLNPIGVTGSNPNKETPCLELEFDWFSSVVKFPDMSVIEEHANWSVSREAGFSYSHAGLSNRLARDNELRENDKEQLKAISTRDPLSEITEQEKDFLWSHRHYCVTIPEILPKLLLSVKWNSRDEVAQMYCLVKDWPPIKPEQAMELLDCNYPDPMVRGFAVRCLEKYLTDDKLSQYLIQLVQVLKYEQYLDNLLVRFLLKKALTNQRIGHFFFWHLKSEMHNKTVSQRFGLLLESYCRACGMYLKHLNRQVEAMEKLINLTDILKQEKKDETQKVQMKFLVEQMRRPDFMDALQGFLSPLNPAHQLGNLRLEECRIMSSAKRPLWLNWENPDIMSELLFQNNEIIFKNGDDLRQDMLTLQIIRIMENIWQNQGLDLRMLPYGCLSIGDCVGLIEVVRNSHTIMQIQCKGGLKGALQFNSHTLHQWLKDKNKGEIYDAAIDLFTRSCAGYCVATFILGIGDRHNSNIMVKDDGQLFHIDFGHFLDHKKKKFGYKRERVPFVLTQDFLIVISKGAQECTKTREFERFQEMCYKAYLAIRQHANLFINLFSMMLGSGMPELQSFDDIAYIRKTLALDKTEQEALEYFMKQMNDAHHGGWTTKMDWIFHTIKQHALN
Chain of PI3Kα (P27986 whole entry partner): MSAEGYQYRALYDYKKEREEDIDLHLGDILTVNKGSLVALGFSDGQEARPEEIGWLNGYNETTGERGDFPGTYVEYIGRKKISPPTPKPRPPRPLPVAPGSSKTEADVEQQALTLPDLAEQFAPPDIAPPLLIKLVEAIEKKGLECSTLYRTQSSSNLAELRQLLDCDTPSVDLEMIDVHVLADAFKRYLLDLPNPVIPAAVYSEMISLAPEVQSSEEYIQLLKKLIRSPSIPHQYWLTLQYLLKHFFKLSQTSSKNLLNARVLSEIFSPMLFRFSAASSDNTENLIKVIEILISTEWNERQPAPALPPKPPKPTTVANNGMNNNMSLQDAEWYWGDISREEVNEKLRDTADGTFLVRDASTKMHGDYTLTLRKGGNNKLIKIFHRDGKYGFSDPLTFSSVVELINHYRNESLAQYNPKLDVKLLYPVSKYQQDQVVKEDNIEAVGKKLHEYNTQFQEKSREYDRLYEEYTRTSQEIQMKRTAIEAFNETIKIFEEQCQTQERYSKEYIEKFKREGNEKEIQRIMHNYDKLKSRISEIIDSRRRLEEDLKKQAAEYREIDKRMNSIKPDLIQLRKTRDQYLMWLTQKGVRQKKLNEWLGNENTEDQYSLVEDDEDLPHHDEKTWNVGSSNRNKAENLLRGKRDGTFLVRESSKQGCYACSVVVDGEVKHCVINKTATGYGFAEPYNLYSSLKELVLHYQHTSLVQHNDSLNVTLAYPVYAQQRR

For `CN(C)C1CN(C(=O)c2ccc(NC(=O)Nc3ccc(-c4nc(N5CCOCC5)c5cccn5n4)cc3)cc2)C1` [Example 86], the inhibition at 0.1 µM (mTOR (FRAP1)) was 82% and the IC50 [1] was < 500 nM.
`CN(C)CCNC(=O)c1ccc(NC(=O)Nc2ccc(-c3nc(N4CCOCC4)c4cccn4n3)cc2)cc1` [Example 45] gave an inhibition at 0.1 µM (mTOR (FRAP1)) of 98%, an inhibition at 0.1 µM (PI3Kα) of 0% and an inhibition at 1 µM (VEGF2) of 10%. It also gave an inhibition at 1 µM (FGFR1) of 4%, an inhibition at 1 µM (HER1 (EGFR)) of -2% and an inhibition at 1 µM (HER2) of -9%. The IC50 [1] was < 500 nM.
`C[C@@H](CO)NC(=O)Nc1ccc(-c2nc(N3CCOCC3)c3cccn3n2)cc1` [Example 52] gave an inhibition at 0.1 µM (mTOR (FRAP1)) of 74% and an inhibition at 0.1 µM (PI3Kα) of 6%.
With `S=C(Nc1ccc(-c2nc(N3CCOCC3)c3cccn3n2)cc1)Nc1cccnc1` [Example 106] the “metabolic stability in HLM” value [2] was “metabolically stable”, the CL ([3]; PO 10 mg/kg) was 4.12 mL/min/kg and the AUC(0-t) ([3]; blood, IV 5 mg/kg) was 41500 ng·h/mL. For the same compound, the Cmax ([3]; blood, IV 5 mg/kg) was 21200 ng/mL, the MRT ([3]; blood, IV 5 mg/kg) was 1.67 h and the clearance ([3]; blood, IV 5 mg/kg) was 2.03 mL/min/kg. For the same compound, the half-life ([3]; blood, IV 5 mg/kg) was 1.42 h, the AUC(0-t) ([3]; blood, PO 10 mg/kg) was 73400 ng·h/mL and the Cmax ([3]; blood, PO 10 mg/kg) was 9990 ng/mL. It also gave an MRT ([3]; blood, PO 10 mg/kg) of 5.68 h, a Tmax ([3]; blood, PO 10 mg/kg) of 2.5 h and a half-life ([3]; blood, PO 10 mg/kg) of 3.26 h. The bioavailability ([3]; blood, PO 10 mg/kg vs IV 5 mg/kg, read-out: Fpo (oral bioavailability)) was 89%.
Compound `O=C(Nc1ccc(C(=O)N2CC(O)C2)cc1)Nc1ccc(-c2nc(N3CCOCC3)c3cccn3n2)cc1` [Example 54] has an inhibition at 0.1 µM (mTOR (FRAP1)) of 95%, an inhibition at 1 µM (VEGF2) of 7% and an inhibition at 1 µM (FGFR1) of -4%. For the same compound, the inhibition at 1 µM (HER1 (EGFR)) was -1%, the inhibition at 1 µM (HER2) was 4% and the IC50 [1] was < 500 nM.
Compound `O=C(Nc1ccc(-c2nc(N3CCOCC3)c3ccc(C(F)(F)F)n3n2)cc1)Nc1cccnc1` [Example 62] has an inhibition at 0.1 µM (mTOR (FRAP1)) of 53% and an inhibition at 0.1 µM (PI3Kα) of 10%.
`CNC(=O)c1ccc(NC(=O)Nc2ccc(-c3nc(N4CCOCC4)c4cccn4n3)cc2)cc1F` [Example 61] showed an inhibition at 0.1 µM (mTOR (FRAP1)) of 71%.
In the case of `C[C@@H]1COCCN1c1nc(-c2ccc(NC(=O)Nc3ccc(C(=O)N4CC[C@@H](O)C4)cc3)cc2)nn2cccc12` [Example 88], the IC50 [1] is reported as < 500 nM.
In the case of `OCCNC(=S)Nc1ccc(-c2nc(N3CCOCC3)c3cccn3n2)cc1` [Example 113], the IC50 [1] is reported as < 500 nM.
With `CCNC(=O)Nc1ccc(-c2nc(N3CCOC[C@H]3C)c3cccn3n2)cc1` [Example 4] the inhibition at 0.1 µM (mTOR (FRAP1)) was 72% and the inhibition at 0.1 µM (PI3Kα) was 10%.
For `CN(C)[C@@H]1CCN(C(=O)c2ccc(NC(=O)Nc3ccc(-c4nc(N5CCOCC5)c5cccn5n4)cc3)cc2)C1` [Example 58], the inhibition at 0.1 µM (mTOR (FRAP1)) was 97%, the inhibition at 1 µM (VEGF2) was 10% and the inhibition at 1 µM (FGFR1) was 4%. For the same compound, the inhibition at 1 µM (HER1 (EGFR)) was 1%, the inhibition at 1 µM (HER2) was -5% and the IC50 [1] was < 500 nM.
`O=C(Nc1ccc(C(=O)N2CCC(O)CC2)cc1)Nc1ccc(-c2nc(N3CCOCC3)c3cccn3n2)cc1` [Example 55] showed an inhibition at 0.1 µM (mTOR (FRAP1)) of 90%, an inhibition at 1 µM (VEGF2) of 11% and an inhibition at 1 µM (FGFR1) of -1%. The inhibition at 1 µM (HER1 (EGFR)) was 0%, the inhibition at 1 µM (HER2) was 5% and the IC50 [1] was < 500 nM. For the same compound, the “metabolic stability in HLM” value [2] was “metabolically stable”.
Compound `C[C@@H]1COCCN1c1nc(-c2ccc(NC(=O)Nc3cccnc3)cc2)nn2cccc12` [Example 17] has an inhibition at 0.1 µM (PI3Kα) of 25%.
`CC(C)(C)C(=O)OCCNC(=O)Nc1ccc(-c2nc(N3C[C@H]4CC[C@@H](C3)O4)c3cccn3n2)cc1` [Example 133] showed an inhibition at 0.1 µM (mTOR (FRAP1)) of 90%, an inhibition at 1 µM (VEGF2) of 9% and an inhibition at 1 µM (FGFR1) of 4%. The inhibition at 1 µM (HER1 (EGFR)) was 1% and the inhibition at 1 µM (HER2) was 5%.
With `C[C@@H]1COCCN1c1nc(-c2ccc(NC(=O)Nc3ccc(C(=O)N4CC[C@H](O)C4)cc3)cc2)nn2cccc12` [Example 89] the “metabolic stability in HLM” value [2] was “metabolically stable”.
For `O=C(Nc1ccc(C(=O)N2CC[C@H](O)C2)cc1)Nc1ccc(-c2nc(N3CCOCC3)c3cccn3n2)cc1` [Example 68], the inhibition at 0.1 µM (mTOR (FRAP1)) was 86% and the IC50 [1] was < 500 nM.
